Data reported in patent US6162610A, “Xanthan-ester and acridan substrates for horseradish peroxidase” (Tropix, Inc., priority 1998, dated 2000).

Assays:
HRP [1] = target: T1, HRP (Armoracia rusticana, UniProt P00433); assay: Effect of detergents and polymers on chemiluminescent signal from xanthene substrate with HRP; type: biochemical, horseradish; conditions: 5 fmol HRP; for Signal + HRP: 19 min incubation
T1 sequence (P00433 31-338 limits assumed): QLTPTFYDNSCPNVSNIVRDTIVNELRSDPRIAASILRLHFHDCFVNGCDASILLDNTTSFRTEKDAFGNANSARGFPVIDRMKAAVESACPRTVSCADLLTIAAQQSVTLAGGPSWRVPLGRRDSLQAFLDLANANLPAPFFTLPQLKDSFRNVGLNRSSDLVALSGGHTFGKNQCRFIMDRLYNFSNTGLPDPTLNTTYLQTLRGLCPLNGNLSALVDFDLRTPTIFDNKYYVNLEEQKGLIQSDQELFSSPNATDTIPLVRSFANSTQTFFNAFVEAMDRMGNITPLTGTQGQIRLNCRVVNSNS
Experimental: (§1) Detergent was added to the buffer solution to increase the solubility of the assay components. The use of polymeric quaternary amines, neutral detergents and cationic detergents was compared using polyvinylbenzyltributylammonium chloride (Sapphire II, Tropix), Tween-20 (Sigma) and […] (CTAB, Sigma). Luminescence was measured in white opaque microplate wells using a Dynatech ML3000 luminometer. First, background signal was measured after the addition of hydrogen peroxide (10 μL of 3.5 mM stock solution) to 0.12 mL of 1.17 mM xanthene substrate (14) in 0.1 M citrate buffer pH 7.0 containing, 0.42 mg/mL hydroxypropylmethylcellulose and 4-iodophenol (iodophenol concentration was 71.4 μg/mL for the Sapphire II and Tween-20 solutions and 178.6 μg/mL for the CTAB solution) after a 19 minute incubation. HRP, 10 μL containing 5 fmol, was added to each well and the chemiluminescence was measured after a 19 min incubation.

HRP [2] = assay: as above; type: biochemical, horseradish; conditions: H2O2, no HRP, 19 minute incubation, citrate buffer pH 7.0
Experimental: as §1

[3] = target: T2, horseradish peroxidase (HRP, Type VIA) (Armoracia rusticana, UniProt P00433); assay: Comparison of Xanthene substrate (14) and Enhanced Chemiluminescence (ECL), HRP dilution series; type: biochemical; conditions: for RLU: Xanthene substrate with 4-phenylphenol, Emerald II, read after 40 minutes; for S/N: Xanthene substrate, 40 minutes
T2 sequence (P00433 31-338 limits assumed): T1 sequence (P00433 31-338 limits assumed)
Experimental: The following conditions were used for the comparison of ECL(a commercially available optimized reagent containing Luminol-an amino-substituted cyclic acylhydrazide) and Xanthene substrate (14). ECL reagents were obtained from Amersham and were used as recommended by the manufacturer. Aliquots of horseradish peroxidase (HRP, Type VIA), 10 μL, containing 0,0.5, 5.0, 50.0, 500.0 and 5000.0 attomoles HRP were then added to 0.13 mL of each reagent formulation. To evaluate Xanthene substrate, hydrogen peroxide (10 μL of a 3.5 mM stock) was added to 10 μL of each HRP dilution and the reaction was initiated by addition of a solution of 0.12 mL of 1.17 mM Xanthene substrate in 0.1 M citrate buffer pH 7.0 containing 1.22 mM 4-phenylphenol, 0.42 mg/mL hydroxypropylmethylcellulose and 0.167 mg/mL Emerald II. The chemiluminescent signal was measured in a Dynatech ML3000 luminometer after 1 minute for ECL and 40 minutes for Xanthene substrate.

[4] = Tween-20, 4-iodophenol 71.4 μg/mL

S/N (HRP [1]; CTAB): 1.5
Signal + HRP (HRP [1]; CTAB, 4-iodophenol 178.6 μg/mL): 3.78
S/N (HRP [1]; Sapphire II): 15.4
Signal + HRP (HRP [1]; Sapphire II, 4-iodophenol 71.4 μg/mL): 229.05
S/N (HRP [1]; Tween-20): 1.8
Signal + HRP (HRP [1]; [4]): 0.0439
RLU ([3]; HRP 0.5 amol): 14.12 RLU
S/N ([3]; HRP 0.5 amol): 1.11
RLU ([3]; HRP 5 amol): 17.52 RLU
S/N ([3]; HRP 5 amol): 1.37
RLU ([3]; HRP 50 amol): 63.12 RLU
S/N ([3]; HRP 50 amol): 4.95
RLU ([3]; HRP 500 amol): 353.31 RLU
S/N ([3]; HRP 500 amol): 27.70
RLU ([3]; HRP 5000 amol): 740.51 RLU
S/N ([3]; HRP 5000 amol): 58.06
Compound: O=C(Oc1ccccc1)C1c2ccccc2Oc2cc(O)ccc21 (stereo not shown) [compound 14, 3-Hydroxy-9H-9-xanthene-carboxylic acid, phenyl ester]
Background (HRP [2]; CTAB, 4-iodophenol 178.6 μg/mL): 2.45
Background (HRP [2]; Sapphire II (polyvinylbenzyltributylammonium chloride), 4-iodophenol 71.4 μg/mL): 14.83
Background (HRP [2]; [4]): 0.0242
